Assays:
[1] = tested on: HepG2 cancer cells; test: Anticancer activity, cell viability by CCK-8, HepG2; type: cell-based; settings: HepG2, 10 μM, 72 hours
Method: (§1) Compounds 1 to 119 synthesized in Example 1 according to the present disclosure were assayed for inhibitory activity against MLK3/LRRK2 enzymes and anticancer activity against HepG2/H[…] cancer cells, and the results are summarized in Table 1, below. Assay for anticancer activity was conducted as follows. HepG2 and H[…] cancer cells were purchased from the Korean Cell Line Bank and cultured according to the instruction provided thereby. One hundred μL of a culture of the cells were seeded at a density of 4,000 cells/well into 96-well plates. After 24 hours, the cells were treated with the compounds for 72 hours. Then, cell viability was assayed using CCK-8 and expressed as % of the control.

[2] = biological target: T1, human recombinant MLK3 protein (Homo sapiens, UniProt Q16584); test: MLK3 kinase activity assay (Eurofins, gamma-33P-ATP, filtermat scintillation counting); type: biochemical; settings: human recombinant MLK3, 120 minutes at room temperature
T1 construct: purchased Eurofins
T1 sequence (Q16584 whole entry): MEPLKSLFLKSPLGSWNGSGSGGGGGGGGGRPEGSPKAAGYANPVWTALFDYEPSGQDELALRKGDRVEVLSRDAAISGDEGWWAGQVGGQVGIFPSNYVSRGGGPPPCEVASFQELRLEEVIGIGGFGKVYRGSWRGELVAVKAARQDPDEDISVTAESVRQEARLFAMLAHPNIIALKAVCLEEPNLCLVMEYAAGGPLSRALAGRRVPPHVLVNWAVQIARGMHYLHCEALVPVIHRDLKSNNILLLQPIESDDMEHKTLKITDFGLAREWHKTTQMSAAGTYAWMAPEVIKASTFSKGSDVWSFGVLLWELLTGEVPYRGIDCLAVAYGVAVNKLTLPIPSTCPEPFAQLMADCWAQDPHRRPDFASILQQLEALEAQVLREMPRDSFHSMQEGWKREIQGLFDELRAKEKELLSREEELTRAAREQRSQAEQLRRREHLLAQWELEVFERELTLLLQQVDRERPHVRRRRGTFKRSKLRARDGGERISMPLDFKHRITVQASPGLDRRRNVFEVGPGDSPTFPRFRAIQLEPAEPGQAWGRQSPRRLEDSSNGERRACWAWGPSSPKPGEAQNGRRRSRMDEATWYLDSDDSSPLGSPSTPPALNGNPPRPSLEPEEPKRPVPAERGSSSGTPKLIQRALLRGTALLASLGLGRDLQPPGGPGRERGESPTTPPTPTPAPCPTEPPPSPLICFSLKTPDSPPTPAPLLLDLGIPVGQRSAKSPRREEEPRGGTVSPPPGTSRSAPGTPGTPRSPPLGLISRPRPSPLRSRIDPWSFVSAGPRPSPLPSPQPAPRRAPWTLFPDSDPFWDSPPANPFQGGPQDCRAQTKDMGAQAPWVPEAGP
Method: (§2) Compounds 1 to 119 synthesized in Example 1 according to the present disclosure were assayed for inhibitory activity against MLK3/LRRK2 enzymes and anticancer activity against HepG2/HS746T cancer cells, and the results are summarized in Table 1, below.
(§3) Inhibitory activity against MLK3 and LRRK2 enzymes was evaluated in Eurofins. In brief, human recombinant MLK3 protein was mixed with the compounds in a reaction buffer (8 mM MOPS (pH 7.0), 0.2 mM EDTA, 0.33 mg/mL myelin basic protein, 5 mM DTT) to which a mixture of 10 mM magnesium acetate and gamma-33P-ATP was then added before incubation at room temperature for 120 minutes. Afterward, the reaction was terminated with 0.5% phosphoric acid. Ten μL of the total mixture was spotted onto a P30 filtermat which was then washed four times for 4 minutes with 0.425% phosphoric acid and once in methanol prior to scintillation counting. Values for the activity of MLK3 were expressed as % of the control. For the activity of LRRK2, human recombinant LRRK2 protein was mixed with the compounds in a reaction buffer (50 mM HEPES (pH 8.0), 0.2 mM EDTA, 0.01% Brij-35, 1% (w/v) BSA, 5 mM DTT, 250 uM substrate peptide RLGRDKYKTLRQIRQ) and then reacted with a mixture of 10 mM magnesium acetate and gamma-33P-ATP at room temperature for 40 minutes. Afterward, the reaction was terminated with 0.5% phosphoric acid. Ten μL of the total mixture was spotted onto a P30 filtermat which was then washed four times for 4 minutes with 0.425% phosphoric acid and once in methanol prior to scintillation counting. Values for the activity of LRRK2 were expressed as % of the control.

[3] = biological target: T2, human recombinant LRRK2 protein (Homo sapiens, UniProt Q5S007); test: LRRK2 kinase activity assay (Eurofins, gamma-33P-ATP, filtermat scintillation counting); type: biochemical; settings: human recombinant LRRK2, 40 minutes at room temperature
T2 construct: purchased Eurofins
T2 sequence (Q5S007 whole entry): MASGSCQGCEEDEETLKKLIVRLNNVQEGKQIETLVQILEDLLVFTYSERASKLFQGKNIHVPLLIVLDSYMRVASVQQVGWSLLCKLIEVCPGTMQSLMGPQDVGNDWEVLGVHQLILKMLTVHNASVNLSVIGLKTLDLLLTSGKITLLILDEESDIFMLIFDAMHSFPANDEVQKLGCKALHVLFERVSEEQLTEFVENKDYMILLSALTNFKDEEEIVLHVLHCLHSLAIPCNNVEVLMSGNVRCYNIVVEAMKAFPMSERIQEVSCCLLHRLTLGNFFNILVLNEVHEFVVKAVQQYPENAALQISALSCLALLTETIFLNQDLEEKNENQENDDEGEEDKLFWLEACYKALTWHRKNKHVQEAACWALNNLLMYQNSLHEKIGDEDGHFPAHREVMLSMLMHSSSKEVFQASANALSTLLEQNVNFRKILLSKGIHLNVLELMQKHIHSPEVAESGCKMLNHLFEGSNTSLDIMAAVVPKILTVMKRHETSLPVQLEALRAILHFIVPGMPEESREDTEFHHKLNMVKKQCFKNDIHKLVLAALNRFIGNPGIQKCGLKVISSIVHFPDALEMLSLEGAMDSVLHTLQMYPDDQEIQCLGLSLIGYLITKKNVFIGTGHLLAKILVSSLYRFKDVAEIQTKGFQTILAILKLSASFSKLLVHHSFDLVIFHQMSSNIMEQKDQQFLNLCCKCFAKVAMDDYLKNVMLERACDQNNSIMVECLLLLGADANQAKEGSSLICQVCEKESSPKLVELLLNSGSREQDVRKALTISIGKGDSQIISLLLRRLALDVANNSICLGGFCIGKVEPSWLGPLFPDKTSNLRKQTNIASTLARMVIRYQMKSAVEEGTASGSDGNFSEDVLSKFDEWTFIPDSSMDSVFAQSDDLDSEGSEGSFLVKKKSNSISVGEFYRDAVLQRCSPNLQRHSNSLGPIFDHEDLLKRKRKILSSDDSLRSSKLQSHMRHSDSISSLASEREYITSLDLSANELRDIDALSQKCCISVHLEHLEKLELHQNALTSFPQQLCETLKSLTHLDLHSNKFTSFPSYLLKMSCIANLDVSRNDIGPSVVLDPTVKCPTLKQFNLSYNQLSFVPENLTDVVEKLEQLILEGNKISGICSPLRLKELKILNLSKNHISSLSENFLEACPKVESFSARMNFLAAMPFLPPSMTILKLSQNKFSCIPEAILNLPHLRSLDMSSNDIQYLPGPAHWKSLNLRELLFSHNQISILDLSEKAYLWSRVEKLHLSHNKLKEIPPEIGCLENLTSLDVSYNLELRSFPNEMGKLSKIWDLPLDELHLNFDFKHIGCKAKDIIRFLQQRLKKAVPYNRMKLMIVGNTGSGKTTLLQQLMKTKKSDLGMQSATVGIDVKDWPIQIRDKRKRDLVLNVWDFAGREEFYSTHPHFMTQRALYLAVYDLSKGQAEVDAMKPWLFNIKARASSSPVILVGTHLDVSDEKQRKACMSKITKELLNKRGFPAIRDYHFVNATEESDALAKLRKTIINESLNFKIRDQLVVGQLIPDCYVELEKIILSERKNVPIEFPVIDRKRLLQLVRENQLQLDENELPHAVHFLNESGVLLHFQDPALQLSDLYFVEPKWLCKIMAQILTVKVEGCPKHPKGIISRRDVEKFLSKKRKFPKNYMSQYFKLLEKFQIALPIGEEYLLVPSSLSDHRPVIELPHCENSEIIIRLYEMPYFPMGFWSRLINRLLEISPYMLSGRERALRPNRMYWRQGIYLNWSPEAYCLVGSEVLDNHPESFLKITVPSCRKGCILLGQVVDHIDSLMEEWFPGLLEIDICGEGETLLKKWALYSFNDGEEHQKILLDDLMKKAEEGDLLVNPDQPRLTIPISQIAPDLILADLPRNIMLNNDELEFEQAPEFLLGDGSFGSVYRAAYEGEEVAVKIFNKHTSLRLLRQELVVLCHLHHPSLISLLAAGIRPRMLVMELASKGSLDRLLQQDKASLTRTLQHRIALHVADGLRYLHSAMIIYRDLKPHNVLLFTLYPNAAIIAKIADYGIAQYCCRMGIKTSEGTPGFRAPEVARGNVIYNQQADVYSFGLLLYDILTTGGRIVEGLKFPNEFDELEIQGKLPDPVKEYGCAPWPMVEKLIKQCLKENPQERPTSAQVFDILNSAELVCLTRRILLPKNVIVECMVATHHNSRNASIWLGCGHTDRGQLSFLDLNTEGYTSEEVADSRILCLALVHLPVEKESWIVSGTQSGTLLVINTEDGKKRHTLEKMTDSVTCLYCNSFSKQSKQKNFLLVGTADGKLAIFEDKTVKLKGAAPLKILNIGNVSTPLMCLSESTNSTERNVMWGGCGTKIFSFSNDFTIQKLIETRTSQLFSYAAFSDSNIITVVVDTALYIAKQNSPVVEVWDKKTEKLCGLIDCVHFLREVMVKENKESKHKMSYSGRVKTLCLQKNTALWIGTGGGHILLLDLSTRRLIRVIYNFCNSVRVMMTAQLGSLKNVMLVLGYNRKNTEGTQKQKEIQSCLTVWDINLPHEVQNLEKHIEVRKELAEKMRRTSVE
Method: as §2, §3

[4] = tested on: HS746T cancer cells; test: Anticancer activity, cell viability by CCK-8, HS746T; type: cell-based; settings: 72 hours
Method: as §1

Structure (SMILES)	IC50 [2] [nM]	IC50 [3] [nM]	Cell viability (% of Con. 10 μM) HepG2 [1]	Cell viability (% of Con. 10 μM) HS746T [4]
Cc1cccc2sc(Nc3ncc(Cl)c(Nc4ccccc4P(C)(C)=O)n3)nc12 [compound 27, (2-((5-Chloro-2-((4-methylbenzo[d]thiazol-2-yl)amino)pyrimidin-4-yl)amino)phenyl)dimethylphosphine oxide]	100 to 1000	> 1000	81 % of Con.	74 % of Con.
CN(C)c1ncc(F)c(NC2CCN(S(C)(=O)=O)CC2)n1 [compound 37, 5-Fluoro-N^2,N^2-dimethyl-N^4-(1-(methylsulfonyl)piperidin-4-yl) pyrimidine-2,4-diamine]	> 1000	> 1000	100 % of Con.	90 % of Con.
CS(=O)(=O)N1CCC(Nc2nc(Nc3ccnc4c(F)cccc34)ncc2F)CC1 [compound 38, 5-Fluoro-N^2-(8-fluoroquinolin-4-yl)-N^4-(1-(methylsulfonyl)piperidin-4-yl)pyrimidine-2,4-diamine]	> 1000	100 to 1000	73 % of Con.	90 % of Con.
CC1(C)NCCc2ccc(Nc3ncc(Cl)c(Nc4ccccc4P(C)(C)=O)n3)cc21 [compound 44, (2-((5-Chloro-2-((1,1-dimethyl-1,2,3,4-tetrahydroisoquinolin-7-yl)amino)pyrimidin-4-yl)amino)phenyl)dimethylphosphine oxide]	1 to 10	1 to 10	53 % of Con.	17 % of Con.
CP(C)(=O)c1ccccc1Nc1nc(Nc2ccc3c(c2)CN(C(=O)C(F)(F)F)CC3)ncc1Cl [compound 46, 1-(7-((5-Chloro-4-((2-(dimethylphosphoryl)phenyl)amino)pyrimidin-2-yl)amino)-3,4-dihydroisoquinolin-2(1H)-yl)-2,2,2-trifluoroethan-1-one]	1 to 10	1 to 10	26 % of Con.	13 % of Con.
CP(C)(=O)c1ccccc1Nc1nc(Nc2ccc3c(c2)CNCC3)ncc1Cl [compound 47, (2-((5-Chloro-2-((1,2,3,4-tetrahydroisoquinolin-7-yl)amino)pyrimidin-4-yl)amino)phenyl)dimethylphosphine oxide]	1 to 10	1 to 10	24 % of Con.	8 % of Con.
CP(C)(=O)c1ccccc1Nc1nc(Nc2ccc3c(c2)CCN(C(=O)C(F)(F)F)C3)ncc1Cl [compound 48, 1-(6-((5-Chloro-4-((2-(dimethylphosphoryl)phenyl)amino)pyrimidin-2-yl)amino)-3,4-dihydroisoquinolin-2(1H)-yl)-2,2,2-trifluoroethan-1-one]	1 to 10	1 to 10	37 % of Con.	9 % of Con.
CC1(C)CN(C(=O)C(F)(F)F)Cc2cc(Nc3ncc(Cl)c(Nc4ccccc4P(C)(C)=O)n3)ccc21 [compound 50, 1-(7-((5-Chloro-4-((2-(dimethylphosphoryl)phenyl)amino)pyrimidin-2-yl)amino)-4,4-dimethyl-3,4-dihydroisoquinolin-2(1H)-yl)-2,2,2-trifluoroethan-1-one]	1 to 10	1 to 10	20 % of Con.	2 % of Con.
CC1NCCc2ccc(Nc3ncc(Cl)c(Nc4ccccc4P(C)(C)=O)n3)cc21 (stereo not shown) [compound 51, (2-((5-Chloro-2-((1-methyl-1,2,3,4-tetrahydroisoquinolin-7-yl)amino)pyrimidin-4-yl)amino)phenyl)dimethylphosphine oxide]	1 to 10	1 to 10	24 % of Con.	2 % of Con.
CC(C)C1c2cc(Nc3ncc(Cl)c(Nc4ccccc4P(C)(C)=O)n3)ccc2CCN1C(=O)C(F)(F)F (stereo not shown) [compound 53, 1-(7-((5-Chloro-4-((2-(dimethylphosphoryl)phenyl)amino)pyrimidin-2-yl)amino)-1-isopropyl-3,4-dihydroisoquinolin-2(1H)-yl)-2,2,2-trifluoroethan-1-one]	1 to 10	1 to 10	23 % of Con.	14 % of Con.
CC(C)C1c2cc(Nc3ncc(F)c(NC4CCN(S(C)(=O)=O)CC4)n3)ccc2CCN1C(=O)C(F)(F)F (stereo not shown) [compound 58, 2,2,2-Trifluoro-1-(7-((5-fluoro-4-((1-(methylsulfonyl)piperidin-4-yl)amino)pyrimidin-2-yl)amino)-1-isopropyl-3,4-dihydroisoquinolin-2(1H)-yl)ethan-1-one]	> 1000	100 to 1000	83 % of Con.	85 % of Con.

The next lines start with results.

IC50 [2] [nM]	IC50 [3] [nM]	Structure (SMILES)	Cell viability (% of Con. 10 μM) HepG2 [1]	Cell viability (% of Con. 10 μM) HS746T [4]
10 to 100	10 to 100	CP(C)(=O)c1ccccc1Nc1nc(Nc2ccc3nc(S)sc3c2)ncc1Cl [compound 23, (2-((5-Chloro-2-((2-mercaptobenzo[d]thiazol-6-yl)amino)pyrimidin-4-yl)amino)phenyl)dimethylphosphine oxide]	27 % of Con.	26 % of Con.
> 1000	> 1000	CP(C)(=O)c1ccccc1Nc1ncc(Cl)c(Nc2ccccc2P(C)(C)=O)n1 [compound 30, (((5-Chloropyrimidin-2,4-diyl)bis(azanediyl))bis(2,1-phenylene)) bis(dimethylphosphineoxide)]	102 % of Con.	85 % of Con.
1 to 10	10 to 100	CP(C)(=O)c1ccccc1Nc1nc(Nc2ccc3c(c2)C(=O)NCC3)ncc1Cl [compound 41, 7-((5-Chloro-4-((2-(dimethylphosphoryl)phenyl)amino)pyrimidin-2-yl)amino)-3,4-dihydroisoquinolin-1(2H)-one]	26 % of Con.	33 % of Con.
1 to 10	1 to 10	CC1(C)c2cc(Nc3ncc(Cl)c(Nc4ccccc4P(C)(C)=O)n3)ccc2CCN1C(=O)C(F)(F)F [compound 42, 1-(7-((5-Chloro-4-((2-(dimethylphosphoryl)phenyl)amino)pyrimidin-2-yl)amino)-1,1-dimethyl-3,4-dihydroisoquinolin-2(1H)-yl)-2,2,2-trifluoroethan-1-one]	48 % of Con.	30 % of Con.
1 to 10	1 to 10	CP(C)(=O)c1ccccc1Nc1nc(Nc2ccc3c(c2)CCNC3)ncc1Cl [compound 49, (2-((5-Chloro-2-((1,2,3,4-tetrahydroisoquinolin-6-yl)amino)pyrimidin-4-yl)amino)phenyl)dimethylphosphine oxide]	31 % of Con.	0.3 % of Con.
1 to 10	1 to 10	CC1(C)CNCc2cc(Nc3ncc(Cl)c(Nc4ccccc4P(C)(C)=O)n3)ccc21 [compound 52, (2-((5-Chloro-2-((4,4-dimethyl-1,2,3,4-tetrahydroisoquinolin-7-yl)amino)pyrimidin-4-yl)amino)phenyl)dimethylphosphine oxide]	21 % of Con.	1 % of Con.
1 to 10	1 to 10	CC1c2cc(Nc3ncc(Cl)c(Nc4ccccc4P(C)(C)=O)n3)ccc2CCN1C(=O)C(F)(F)F (stereo not shown) [compound 54, 1-(7-((5-Chloro-4-((2-(dimethylphosphoryl)phenyl)amino)pyrimidin-2-yl)amino)-1-methyl-3,4-dihydroisoquinolin-2(1H)-yl)-2,2,2-trifluoroethan-1-one]	17 % of Con.	4 % of Con.
1 to 10	1 to 10	CC(C)C1NCCc2ccc(Nc3ncc(Cl)c(Nc4ccccc4P(C)(C)=O)n3)cc21 (stereo not shown) [compound 55, (2-((5-Chloro-2-((1-isopropyl-1,2,3,4-tetrahydroisoquinolin-7-yl)amino)pyrimidin-4-yl)amino)phenyl)dimethylphosphine oxide]	19 % of Con.	2 % of Con.

— patent publication US20240270698A2, “NOVEL PYRIMIDINE DERIVATIVE AND USE THEREOF” (KOREA RESEARCH INSTITUTE OF CHEMICAL TECHNOLOGY, priority 2019, published 2024)
